How the values were obtained:
[1] = tested on: cat brain after right middle cerebral artery (MCA) occlusion; assay: DyDTPA-BMA-enhanced T2-weighted spin-echo MRI of cerebral perfusion deficit after MCA occlusion; type: in vivo; settings: for signal difference between ischemic and contralateral control tissue: mean ± S.E.M.
Procedure: Young adult cats weighing 2.0 to 4.5 kg were anaesthetized with 30 mg/kg i.v. Nembutal. Polyethylene catheters were placed in the femoral artery and vein for blood pressure monitoring and drug administration. The right middle cerebral artery (MCA) was isolated via the transorbital approach and occluded just proximal to the origin of the lateral striate arteries with bipolar electrocautery followed by complete surgical transection. The dural incision and orbit were covered with saline moistened gauze and absorbable gelatin sponge.
A General Electric CSI (2 Tesla) unit, equipped with Acustar S-150 self-shielded gradient coils (+20 gauss/cm, 15 cm bore size) was used. MRI was performed with an 8.5 cm inner-diameter low-pass birdcage proton imaging coil. Successive multislice T2-weighted coronal images were obtained for up to 12 hours following occlusion. Spin-echo T2-weighted images (TR 2800, TE 80 and 160, 3 mm slices, 1 mm gap) were obtained with a field-of-view (FOV) of 80 mm in which two scans were averaged for each one of the 128 phase-encoding steps resulting in a total acquisition time of 12 minutes.
In order to evaluate the anatomic region of perfusion deficiency following MCA occlusion, cats were injected with a non-ionic T2*-shortening contrast agent, DyDTPA-BMA. The DyDTPA-BMA complex was prepared by refluxing an aqueous suspension containing stoichiometric amounts of dysprosium oxide and DTPA-BMA. The contrast agent was infused i.v. at doses of 0.25, 0.5 or 1.0 mmol/kg beginning at phase-encoding step #32 and finishing at step #60 (approximately 3 min) of T2-weighted image acquisition. DyDTPA-BMA injections were given at different time points post MCA occlusion in individual cats. After injection, the magnetic susceptibility effect was quantified for up to 60 minutes in both ischemic and normal hemispheres by comparing region-of-interest (ROI) intensity to pre-contrast T2-weighted ROI intensities. […] A signal intensity ratio was calculated as the ROI image intensity ratio of an abnormal, ischemic region over that of the normal, contralateral side. Results were expressed as the mean percentage change ±Standard Error of the Mean (X±S.E.M.)
At the conclusion of the MR protocol, 15 ml/kg of a 2% solution of 2,3,5-triphenyl tetrazolium chloride (TTC) was infused transcardially. The brain was removed from the cranium after 10–20 minutes, immersed in a 2% TTC solution for another 10–20 minutes, and then stored overnight in 10% buffered formalin in a light shielded container. The brain was sectioned coronally (2–3 mm slices) from 24–36 hours later and immediately examined for histologic evidence of ischemic damage as evidenced by pallor of TTC-staining.

mice = assay: LD50 i.v. administration in mice; type: in vivo

CNC(=O)CN(CCN(CCN(CC(=O)[O-])CC(=O)NC)CC(=O)[O-])CC(=O)[O-].[Dy+3] [DyDTPA-BMA]
Onset of signal hypertensity (relative to pre-contrast T2-weighted image): Earlier (number of cats) ([1]; 0.25 mmol/kg, 5 cats tested): 1 | Onset of signal hypertensity (relative to pre-contrast T2-weighted image): Later (number of cats) ([1]; 0.25 mmol/kg, 5 cats tested): 0 | Onset of signal hypertensity (relative to pre-contrast T2-weighted image): Same Time (number of cats) ([1]; 0.25 mmol/kg, 5 cats tested): 4 | Signal intensity ratio of injured to contralateral control tissue (relative to pre-contrast T2 weighted image): Better (number of injections) ([1]; 0.25 mmol/kg, 5 injections): 4 | Signal intensity ratio of injured to contralateral control tissue (relative to pre-contrast T2 weighted image): Same (number of injections) ([1]; 0.25 mmol/kg, 5 injections): 1 | Signal intensity ratio of injured to contralateral control tissue (relative to pre-contrast T2 weighted image): Worse (number of injections) ([1]; 0.25 mmol/kg, 5 injections): 0 | maximum signal intensity losses ([1]; 0.5 mmol/kg i.v., gray matter of normal non-occluded cerebral hemisphere, first 15 minutes after injection): 35% | Onset of signal hypertensity (relative to pre-contrast T2-weighted image): Earlier (number of cats) ([1]; 0.50 mmol/kg, 16 cats tested): 12 | Onset of signal hypertensity (relative to pre-contrast T2-weighted image): Later (number of cats) ([1]; 0.50 mmol/kg, 16 cats tested): 0 | Onset of signal hypertensity (relative to pre-contrast T2-weighted image): Same Time (number of cats) ([1]; 0.50 mmol/kg, 16 cats tested): 4 | Signal intensity ratio of injured to contralateral control tissue (relative to pre-contrast T2 weighted image): Better (number of injections) ([1]; 0.50 mmol/kg, 23 injections): 17 | Signal intensity ratio of injured to contralateral control tissue (relative to pre-contrast T2 weighted image): Same (number of injections) ([1]; 0.50 mmol/kg, 23 injections): 6 | Signal intensity ratio of injured to contralateral control tissue (relative to pre-contrast T2 weighted image): Worse (number of injections) ([1]; 0.50 mmol/kg, 23 injections): 0 | Onset of signal hypertensity (relative to pre-contrast T2-weighted image): Earlier (number of cats) ([1]; 1.0 mmol/kg, 6 cats tested): 4 | Onset of signal hypertensity (relative to pre-contrast T2-weighted image): Later (number of cats) ([1]; 1.0 mmol/kg, 6 cats tested): 0 | Onset of signal hypertensity (relative to pre-contrast T2-weighted image): Same Time (number of cats) ([1]; 1.0 mmol/kg, 6 cats tested): 2 | Signal intensity ratio of injured to contralateral control tissue (relative to pre-contrast T2 weighted image): Better (number of injections) ([1]; 1.0 mmol/kg, 16 injections): 14 | Signal intensity ratio of injured to contralateral control tissue (relative to pre-contrast T2 weighted image): Same (number of injections) ([1]; 1.0 mmol/kg, 16 injections): 2 | Signal intensity ratio of injured to contralateral control tissue (relative to pre-contrast T2 weighted image): Worse (number of injections) ([1]; 1.0 mmol/kg, 16 injections): 0 | signal intensity recovery, of pre-contrast control values ([1]; 45 minutes after administration, all cerebral tissues): at least 90% | signal difference between ischemic and contralateral control tissue ([1]; basal ganglia): 26±8% | time post-occlusion at which relative hyperintensity was found in occluded basal ganglia (as early as) ([1]; both 1 mmol/kg and 0.5 mmol/kg dosages): 30 min | difference in immediate post-contrast signal intensity on increasing dosage ([1]; dosage increased from 0.5 to 1.0 mmol/kg): only a minimal difference | signal difference between ischemic and contralateral control tissue ([1]; gray matter in the inferior parietal gyrus): 42±14% | signal difference between ischemic and contralateral control tissue ([1]; white matter in the internal capsule): 5±4% | LD50 (mice): 34 mmol/kg

— US6994841B1, “Relating to magnetic resonance imaging” (Kucharczyk and Moseley Partners, priority 1990, dated 2006)
